Source: patent publication US20060099225A1 (priority 2004, published 2006)

Legend:
[1] = tested on: Vero E6 cells
[2] = tested on: Ebola virus (EBOV); type: cell-based
[3] = tested on: 293T cells transfected with Ebola GP; type: cell-based, human

Compound | general cytotoxic effect, trypan blue exclusion [1] | EBOV infection, viral titer 48 hour post infection [2] | virus production when cells recover in medium 4 h after treatment before infection [2] | association of Ebola GP with rafts (detergent insoluble fraction) after pre-treatment [3]
nystatin | cells were shown to be viable |  |  | 
CCCCC[C@@H](O)[C@H]1C(=O)O[C@H](C)[C@@H](O)/C=C/C=C/C=C/C=C/C=C(\C)[C@@H](O)C[C@H](O)C[C@H](O)C[C@H](O)C[C@H](O)C[C@H](O)C[C@@H]1O [filipin] | cells were shown to be viable | significant inhibition of EBOV infection | could produce large amounts of virus | 
methyl-β-cyclodextrin |  |  |  | almost complete removal of Ebola GP from rafts
